Source: patent US6642251B1, “Geometrically restricted 2-indolinone derivatives as modulators of protein kinase activity” (Sugen, Inc., priority 1998, dated 2003)

Test system: HUV-EC-C cells (human umbilical vein endothelial cells)
Assay: HUV-EC-C assay, VEGF-stimulated (VEGF HUVEC)
Format: cell-based
Description: The following protocol may also be used to measure a compound's activity against PDGF-R, FGF-R, VEGF, aFGF or Flk-1/KDR, all of which are naturally expressed by HUV-EC cells.
1. Wash and trypsinize HUV-EC-C cells (human umbilical vein endothelial cells, (American Type Culture Collection; catalogue no. 1730 CRL). Wash with Dulbecco's phosphate-buffered saline (D-PBS; obtained from Gibco BRL; catalogue no. 14190-029) 2 times at about 1 ml/10 cm^2 of tissue culture flask. Trypsinize with 0.05% trypsin-EDTA in non-enzymatic cell dissociation solution (Sigma Chemical Company; catalogue no. C-1544). The 0.05% trypsin is made by diluting 0.25% trypsin/l mM EDTA (Gibco; catalogue no. 25200-049) in the cell dissociation solution. Trypsinize with about 1 ml/25-30 cm^2 of tissue culture flask for about 5 minutes at 37° C. After cells have detached from the flask, add an equal volume of assay medium and transfer to a 50 ml sterile centrifuge tube (Fisher Scientific; catalogue no. 05-539-6).
2. Wash the cells with about 35 ml assay medium in the 50 ml sterile centrifuge tube by adding the assay medium, centrifuge for 10 minutes at approximately 200×g, aspirate the supernatant, and resuspend with 35 ml D-PBS. Repeat the wash two more times with D-PBS, resuspend the cells in about 1 ml assay medium/15 cm^2 of tissue culture flask. […]

| IC50 | SMILES |
| --- | --- |
| 330 nM | O=C1Nc2ccccc2/C1=C1\CCc2ccccc21 [Compound 10, 3-Indan-1-ylidene-1,3-dihydroindol-2-one] |
| 50 nM | COc1ccc2c(c1)C(CC(=O)O)C/C2=C1/C(=O)Nc2ccccc21 (centres unmarked) [Compound 11, [6-Methoxy-3-(2-oxo-1,2-dihydroindol-3-ylidene)-indan-1-yl]acetic Acid] |
